Experimental data from BindingDB's records for doi:10.1016/S0960-894X(01)80688-0 (1994).

Legend:
[1] = Inhibitory activity was determined against almonds Beta-glucosidase
[2] = Inhibitory activity was determined against bovine liver beta galactosidase
[3] = Inhibitory activity was determined against Escherichia coli beta galactosidase

| SMILES | IC50 [1] [µM] | IC50 [2] [µM] | IC50 [3] [µM] |
| --- | --- | --- | --- |
| OCC1C(O)C(O)C2OC(Nc3ccccc3)=NC12 (stereo unspecified) [4-Hydroxymethyl-2-phenylamino-4,5,6,6a-tetrahydro-3aH-cyclopentaoxazole-5,6-diol] | > 300 | 3 | > 300 |
| OCC1(O)C(O)C(O)C2N=C(Nc3ccccc3)OC21 (stereo unspecified) [6-Hydroxymethyl-2-phenylamino-4,5,6,6a-tetrahydro-3aH-cyclopentaoxazole-4,5,6-triol] | > 300 | 153 | > 300 |
